{
  "source": "patent US8685936B2",
  "about": "“Sphingosine kinase inhibitor prodrugs” (Apogee Biotechnology Corporation, priority 2009, dated 2014)",
  "key": {"[1]": {"tested_on": "Murine JC mammary adenocarcinoma cells", "assay": "Cytotoxicity, MTS cell viability assay", "type": "cell-based", "details": "72 hours", "from_the_text": "FIG. 5. Inhibition of tumor cell proliferation by Compound 1 and Compound 2. Murine JC mammary adenocarcinoma cells were exposed to the indicated concentrations of either Compound 1 (▪) or Compound 2 (▴) for 72 hr. At the end of the exposure, the number of viable tumor cells was quantified using the MTS assay. Values represent the fraction of surviving cells compared with DMSO-(vehicle)-treated control cells.\nTo further assess the biological efficacies of the Compounds in intact cells, Compound 1 and Compound 2 were evaluated for cytotoxicity using a murine breast cancer cell line. These experiments followed methods that have been extensively used. The cells were treated with varying doses of the test Compound for 72 hours, and then cell viability was measured using CellTiter 96® AQueous Non-Radioactive Cell Proliferation Assay (MTS) available from Promega Corporation. Values represent the mean±std. dev. percentage of cells that survive at each of the indicated concentrations of Compound 1 or Compound 2. […] However, the extent of cell killing and the potency for cell killing were greater for Compound 2 than Compound 1."}, "[2]": {"tested_on": "TNBS-induced Crohn's Disease model", "assay": "TNBS-induced Crohn's Disease model", "type": "in vivo", "protocol": "FIG. 12. Effects of Compound 1 and Compound 2 on colon histology in the TNBS-induced Crohn's Disease model. On Day 0, female Sprague-Dawley rats were administered TNBS using a stainless steel catheter that was inserted into the colon (8 cm proximal to the anus; 1.0 mL of solution containing 30 mg TNBS and 20% ethanol in PBS). On Days 0-5 animals received daily oral gavage of Vehicle (described in FIG. 7) or 50 mg/kg of Compound 1 or Compound 2 in Vehicle. On Day 6, the colons were removed, weighed and scored for macroscopic damage. The distal 6 cm were transected for subsequent histology and biochemical analyses. In this model, the macroscopic score is an index of histologic damage to the colon which increases as the disease progresses.\nFIG. 13. Effects of Compound 1 and Compound 2 on colon weight in the TNBS-induced Crohn's Disease model. Colon weights were measured for the rats described in FIG. 12. Values represent the mean±std. dev. for 5-6 rats per group. In this model, colon weight increases as the disease progresses due to progressive inflammation-mediated edema.\nFIG. 14. Effects of Compound 2 on neutrophil infiltration into the colon in the TNBS-induced Crohn's Disease model. Neutrophil infiltration was evaluated in the rats described in FIG. 12. Values represent the mean±std. dev. for 5-6 rats per group. In this model, MPO activity in the colon increases as a result of neutrophil infiltration into the colon as the disease progresses.\nThe trinitrobenzene sulfonic acid (TNBS) model in rats provides a rapid, reliable and reproducible IBD model that mimics the manifestations of Crohn's Disease. Application of the hapten TNBS to the colon in the presence of ethanol results in transmural infiltrative disease that is limited to the colon and appears to be an IL-12-driven, Th1-mediated immunologic response. […] TNBS induces measurable injury within 2 to 3 days, peak acute inflammation within a week, and gradual progression into chronic inflammation lasting about 2 months.\nTo test the efficacy of the Compounds, groups of female Sprague-Dawley rats were administered TNBS on Day 0 and treated with vehicle (as the negative control group), Compound 1 or Compound 2 on Days 0-5 by oral gavage at a dose of 50 mg/kg/day. […] Disease progression was evaluated by macroscopic score, colon weight and colon MPO activity at sacrifice. The macroscopic score measures macroscopic damage within the distal 6 cm of the colon using a system that considers the extent of and number of ulcerations."}, "[3]": {"assay": "Conversion of Compound 2 to Compound 1 in living mice; plasma levels of Compound 1 by HPLC", "type": "in vivo", "protocol": "FIG. 4. Conversion of Compound 2 into Compound 1 in vivo. Balb/C female mice, 6-8 weeks old, were dosed with either Compound 1 (●) or Compound 2 (♦) at 50 mg/kg by intravenous injection. Mice were euthanized at the indicate times after injection, and blood was harvested by cardiac puncture and plasma was prepared. The plasma was then extracted and analyzed for Compound 1 levels by HPLC.\nTo extend the in vitro studies described above, the ability of Compound 2 to be converted to Compound 1 in an in vivo test system was determined. In these experiments, Compound 1 or Compound 2 was dissolved in PEG400 and administered to female Balb/C mice at a dose of 50 mg/kg by intravenous injection. Mice were sacrificed and blood was removed via cardiac puncture at 2 minutes, 15 minutes, 30 minutes or 60 minutes. The concentration of Compound 1 in the blood of the animals at each of the time points was determined using HPLC with UV detection as described in the previous Example. […] In the case of administration of Compound 2, plasma concentrations of Compound 1 rose during the first 30 minutes and then were decreased with a half-time of clearance of approximately 20 minutes."}, "[4]": {"tested_on": "mouse JC mammary adenocarcinoma tumors", "assay": "Antitumor activity, JC mammary adenocarcinoma tumors growing subcutaneously in Balb/c mice", "type": "in vivo", "details": "50 mg/kg of Compound 2 daily for five days per week", "protocol": "FIG. 6. Antitumor activity of Compound 2 alone and in combination with gemcitabine. Murine JC mammary adenocarcinoma cells were injected subcutaneously into Balb/c mice and tumors were allowed to grow to approximately 150 mm^3. The animals were then treated with vehicle alone (▪), 1 mg/kg of gemcitabine weekly (▴), 50 mg/kg of Compound 2 daily for five days per week (▾) or a combination of gemcitabine plus Compound 2 (♦). Tumors were measured twice per week. The values shown represent the average tumor volume+/−the std. dev. for each group (n=8).\nThe antitumor activity of a representative prodrug SK inhibitor was evaluated using a […] tumor model that uses the mouse JC mammary adenocarcimona cell line growing subcutaneously in immunocompetent Balb/c mice (Lee et al., Oncol Res 14: 49 (2003)). These cells express elevated levels of SK activity relative to non-transformed cells, as well as the multidrug resistance phenotype due to P-glycoprotein activity. Murine JC mammary adenocarcinoma cells were injected subcutaneously into Balb/c mice and tumors were allowed to grow to approximately 100 mm^3. The animals were then treated with vehicle alone (▪), 1 mg/kg of gemcitabine weekly (▴), 50 mg/kg of Compound 2 daily for five days per week (▾) or a combination of gemcitabine plus Compound 2 (♦). Tumors were measured twice per week. […]"}, "[5]": {"details": "TNBS Day 0, 50 mg/kg/day oral gavage Days 0-5, Day 6, female Sprague-Dawley rats"}},
  "data": [
    {"molecule": "CC(=O)Oc1ccc(CCNC(=O)C23CC4CC(C2)CC(c2ccc(Cl)cc2)(C4)C3)cc1OC(C)=O", "note": "[Compound 2, Acetic acid 2-acetoxy-5-(2-{[3-(4-chlorophenyl)-adamantane-1-carbonyl]-amino}ethyl)phenyl ester]", "values": [
      {"measurement": "extent of cell killing, Compound 2 compared with Compound 1", "setting": "[1]", "result": "greater"},
      {"measurement": "inhibition of tumor cell proliferation (cell viability)", "setting": "[1]", "result": "can inhibit tumor cell proliferation"},
      {"measurement": "potency for cell killing, Compound 2 compared with Compound 1", "setting": "[1]", "result": "greater"},
      {"measurement": "Compound-related toxicities", "setting": "[2]; 50 mg/kg/day oral gavage Days 0-5, rats sacrificed on Day 6", "result": "no Compound-related toxicities apparent"},
      {"measurement": "Macroscopic Score of colon damage", "setting": "[2]; [5]", "result": "reduced the Macroscopic Score"},
      {"measurement": "colon MPO activity (granulocyte infiltration)", "setting": "[2]; [5]", "result": "reduced MPO activity in the colon"},
      {"measurement": "colon weight", "setting": "[2]; [5]", "result": "reduced the elevation of the colon weight"},
      {"measurement": "area-under-the-curve (AUC) for exposure to circulating Compound 1, compared with dosing Compound 1 itself", "setting": "[3]; 50 mg/kg intravenous, female Balb/C mice", "result": "much greater"},
      {"measurement": "half-time for clearance of Compound 1 from plasma", "setting": "[3]; 50 mg/kg of the named compound by intravenous injection in PEG400, female Balb/C mice, Compound 1 measured", "result": "approximately 20 minutes"},
      {"measurement": "tumor growth (tumor volume)", "setting": "[4]", "result": "significant reduction of tumor growth"}
    ]}
  ]
}
